Results as given in US20060030536A1, “Combination therapies for cancer and proliferative angiopathies” (University of South Florida, priority 2004, published 2006).
One block for each compound: values may come before it.

Assays:
HIF-1α = test: Western blot of HIF-1α protein in tumor cells; format: cell-based, human; details: for HIF-1α protein level: A2058 (also A2056) human melanoma cells, constitutively active c-Src
VEGF = test: Western blot of VEGF protein in tumor cells; format: cell-based, human
Source text: […] Fifty […] of nuclear or whole-cell extracts was used for Western blot analysis. HIF-1α rabbit polyclonal antibody (H-206) (1:500 dilution), HIF-1β mouse monoclonal antibody (1:1,500 dilution), AKT1 mouse monoclonal, anti-phospho-AKT rabbit polyclonal, anti-VEGF monoclonal antibody (1:1,000 dilution) were used for the Western blot analyses. Horseradish peroxidase-conjugated sheep anti-mouse and donkey anti-rabbit or anti-goat secondary antibodies were used at 1:2,000 and 1:5,000 dilutions, respectively. The signal was developed with SuperSignal West Pico Chemiluminescent Substrate (PIERCE).

AKT1 mRNA = test: Microarray gene expression database, AKT1 mRNA; format: cell-based; details: MDA-MB435 human breast cancer cell line
Stat3 [1] = target: Stat3 (Homo sapiens, UniProt P40763); details: cited from earlier work
Sequence of Stat3 (Homo sapiens, UniProt P40763) (P40763 whole entry): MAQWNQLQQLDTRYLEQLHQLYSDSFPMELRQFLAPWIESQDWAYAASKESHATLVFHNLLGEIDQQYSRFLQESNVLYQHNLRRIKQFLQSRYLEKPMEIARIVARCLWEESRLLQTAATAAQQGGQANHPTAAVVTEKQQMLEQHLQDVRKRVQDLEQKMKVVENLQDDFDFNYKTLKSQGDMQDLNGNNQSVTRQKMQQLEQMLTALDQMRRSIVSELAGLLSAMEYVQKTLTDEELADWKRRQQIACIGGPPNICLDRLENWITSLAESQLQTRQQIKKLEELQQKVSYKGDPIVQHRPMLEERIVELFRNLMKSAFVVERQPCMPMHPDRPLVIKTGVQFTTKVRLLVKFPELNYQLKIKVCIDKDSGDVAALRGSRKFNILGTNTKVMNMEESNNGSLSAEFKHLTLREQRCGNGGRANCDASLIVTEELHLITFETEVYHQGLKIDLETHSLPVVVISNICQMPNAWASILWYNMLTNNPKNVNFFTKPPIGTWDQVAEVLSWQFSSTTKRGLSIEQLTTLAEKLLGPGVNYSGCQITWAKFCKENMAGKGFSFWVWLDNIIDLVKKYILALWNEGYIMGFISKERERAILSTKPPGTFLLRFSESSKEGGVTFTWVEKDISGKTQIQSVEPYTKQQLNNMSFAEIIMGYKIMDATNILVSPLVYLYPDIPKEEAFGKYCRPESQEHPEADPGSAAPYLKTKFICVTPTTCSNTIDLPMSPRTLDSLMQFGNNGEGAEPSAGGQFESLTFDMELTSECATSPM

Jak2 = details: cited from earlier work
MDA-MB-468 cells [2] = test: Trypan blue dye exclusion assay (cell death); format: cell-based, human; details: 48 h
Method: MDA-MB-468 cells were treated with vehicle DMSO (control), 10 or 20 μM LY294002; 0.05 EM JSI-124; 10+0.05 μM LY294002+JSI-124; or 20+0.05 μM LY294002+JSI-124 for 48 h, followed by trypan blue dye exclusion assay. The numbers indicate the percentage of dead cells. Standard deviations are shown with error bars.
The trypan blue dye exclusion assay was performed by mixing 20 μl of cell suspension with 20 μl of 0.4% trypan blue dye before injecting into a hemocytometer and counting. The number of cells that absorbed the dye and those that exclude the dye were counted, from which the percentage of nonviable cell number to total cell number was calculated.
To determine whether the combination treatment is more beneficial than single agent treatment to induce breast cancer cell death, MDA-MB-468 cells were treated with the indicated concentrations of either drug alone or in combinations for 48 h, followed by trypan blue dye incorporation assays.

MDA-MB-468 cells [3] = test: TUNEL assay (apoptosis); format: cell-based, human; details: single agents: 20 μM LY294002; 0.1 or 0.05 μM JSI-124; 48 h
Method: The assay was performed following manufacturer's instruction using the APO-Direct kit. […] After removing the DNA labeling solution by rinsing cells with Rinsing Buffer, the cells were incubated with the Propidium Iodide/RNase A solution, incubated for 30 min at room temperature in the dark, and then analyzed by flow cytometry within 3 h of staining.

[4] = system: MDA-MB-468 and MDA-MB453 cells; test: Flow cytometry cell cycle analysis; format: cell-based, human; details: 20 μM LY294002, 0.05 μM JSI-124, 48 h
Method: MDA-453 cells were treated with vehicle DMSO (control), 20 μM LY294002; 0.05 μM JSI-124 or 20+0.05 μM LY294002+JSI-124 for 48 h, followed by flow cytometry analysis.
Cell cycle analysis based on DNA content was performed as we described previously. At each time point, cells were harvested, counted, and washed twice with wash buffer (1 mg glucose per ml PBS). Cells (2×10^6) were suspended in 0.5 ml PBS, fixed in 5 ml of 70% ethanol for over night at −20° C., centrifuged, washed once with PBS and resuspended again in 1 ml of propidium iodide staining solution (50 jig propidium iodide, 100 units RNase A and 1 mg glucose per ml PBS), and incubated at room temperature in the dark for 30 min. The cells were then analyzed with FACScan (Becton Dickinson Immunocytometry, Calif.), ModFit LT and WinMDI V.2.8 cell cycle analysis software (Verity Software; Topsham, Me.). The cell cycle distribution is shown as the percentage of cells containing G1, S, G2, and M DNA judged by propidium iodide staining.
To determine the effect of combination treatment on cell cycle changes, MDA-MB-468 and MDA-MB453 cells were treated with the indicated concentrations of LY294002, JSI-124 or their combinations for 48 h, followed by flow cytometry analysis.

[5] = system: PI3k/Akt or Mek/Erk pathways; details: cited from earlier work
Stat3 [6] = test: EMSA of Stat3 DNA-binding activity in nuclear extracts; format: cell-based, human; details: for Stat3 DNA-binding activity: A2058 (also A2056) human melanoma cells
Method: Nuclear extracts (1-8 μg of total protein) were incubated with the ^32P-radiolabled hSEE (high-affinity Sis-Inducible Element) oligonucleotide probe. Protein-DNA complexes were resolved by 5% non-denatured polyacrylamide gel electrophoresis (PAGE) and specific STAT/DNA complexes were detected by autoradiography.

[7] = EGF stimulation, DU145 human prostate cancer cells (data not shown)

Compound: Stat3 antisense oligonucleotide: antisense nucleic acid 5′-AAAAAGTGCCCAGATTGCCC-3′ used to knock down Stat3 expression (listed as DNA, chemistry not given here)
HIF-1α upregulation (HIF-1α; [7]): required for both HIF-1α and VEGF upregulation by EGF stimulation | VEGF upregulation (VEGF; [7]): required for both HIF-1α and VEGF upregulation by EGF stimulation | AKT1 mRNA expression (AKT1 mRNA): reduction in AKT1 mRNA expression

Compound: CC(=O)OC(C)(C)/C=C/C(=O)[C@](C)(O)[C@H]1[C@H](O)C[C@@]2(C)[C@@H]3CC=C4[C@H](C[C@H](O)C(=O)C4(C)C)[C@]3(C)C(=O)C[C@]12C [Cucurbitacin B]
Stat3 activation (Stat3 [1]): suppress both Stat3 and Jak2 activation | Jak2 activation (Jak2): suppress both Stat3 and Jak2 activation

Compound: C[C@@H]1C[C@@H]([C@H](O)CC2CC(=O)NC(=O)C2)C(=O)[C@@H](C)C1 [cycloheximide]
IL-6-induced HIF-1α expression (HIF-1α; MCF-7 cells, 20 ng/ml IL-6, protein synthesis blocked): attenuation of HIF-1α expression

Compound: CC(C)(O)/C=C/C(=O)[C@](C)(O)C1[C@H](O)C[C@@]2(C)C3CC=C4C(C=C(O)C(=O)C4(C)C)[C@]3(C)C(=O)C[C@]12C (some centres unmarked) [JSI-124, Cucurbitacin I]
cell death (MDA-MB-468 cells [2]; 0.05 μM JSI-124 alone): 7% | apoptosis induction (MDA-MB-468 cells [3]): Little apoptosis induction | accumulation in G0/G1 phase [4]: not either single drug treatment | Stat3 activation (Stat3 [1]): suppress both Stat3 and Jak2 activation | Jak2 activation (Jak2): suppress both Stat3 and Jak2 activation | inhibition of PI3k/Akt or Mek/Erk pathways [5]: does not inhibit the PI3k/Akt or Mek/Erk pathways

Compound: Cucurbitacin Q
Stat3 activation (Stat3 [1]): suppress Stat3 activation | Jak2 activation (Jak2): not Jak2 activation

Compound: CCN(CC)CCOc1ccc(Nc2ncc3cc(-c4c(Cl)cccc4Cl)c(=O)n(C)c3n2)cc1 [PD166285]
HIF-1α protein level (HIF-1α): dose-dependent reduction in HIF-1α protein level | Stat3 DNA-binding activity (Stat3 [6]): parallel reduction in Stat3 DNA-binding activity

activated Stat3 (Stat3 [6]; MCF-7 cells, heregulin at 100 ng/ml): detectable levels of activated Stat3
Compound: heregulin
HIF-1α expression (HIF-1α; MCF-7 cells, heregulin): induces HIF-1α expression | VEGF expression (VEGF; control MCF-7 cells, heregulin): upregulates VEGF expression

Compound: Cc1cc(Nc2ncc3cc(-c4c(Cl)cccc4Cl)c(=O)n(C)c3n2)ccc1F [PD180970]
HIF-1α protein level (HIF-1α): dose-dependent reduction in HIF-1α protein level | Stat3 DNA-binding activity (Stat3 [6]): parallel reduction in Stat3 DNA-binding activity

Compound: CC(=O)OC(C)(C)/C=C/C(=O)[C@](C)(O)[C@H]1[C@H](O)C[C@@]2(C)[C@@H]3CC=C4[C@@H](C=C(O)C(=O)C4(C)C)[C@]3(C)C(=O)C[C@]12C [Cucurbitacin E]
Stat3 activation (Stat3 [1]): suppress both Stat3 and Jak2 activation | Jak2 activation (Jak2): suppress both Stat3 and Jak2 activation

Compound: O=c1cc(N2CCOCC2)oc2c(-c3ccccc3)cccc12 [LY294002, 2-(4-morpholinyl)-8-phenyl-4H-1-benzopyran-4-one]
cell death (MDA-MB-468 cells [2]; 20 μM LY294002 alone): 14% | apoptosis induction (MDA-MB-468 cells [3]): Little apoptosis induction | accumulation in G0/G1 phase [4]: not either single drug treatment

Compound: CCC(O)[NH+]1CC[NH+](C(O)CC)CC1.[Cl][Pt-2]([Cl])([Cl])([Cl])([Cl])[Cl] (centres unmarked) [IS3 295]
HIF-1α expression (HIF-1α; DU145 tumor cells): reduction in the expression of both HIF-1α and VEGF | VEGF expression (VEGF; DU145 tumor cells): reduction in the expression of both HIF-1α and VEGF | Stat3 activity (DNA-binding) (Stat3 [6]; DU145 prostate cancer cells): reduction in Stat3 activity in a dose-dependent manner
